Experimental data as given in ChEMBL document CHEMBL5252611, “2- and 3-Fluoro-3-deaza-1',6'-isoneplanocin: Synthesis and antiviral properties (including Ebola and Marburg)” (Bioorg Med Chem Lett, 2023).
Activity calls are given as the source filed them. No cut-off for these calls is given here.

What was measured:
[1] = Selectivity index, ratio of CC50 for cytotoxicity against African green monkey Vero cells infected with Zaire ebolavirus to EC50 for antiviral activity against Zaire ebolavirus infected in African green monkey Vero cells; format: toxicity, cell-based; details: read-out: Ratio CC50/EC50
[2] = test system: Marburgvirus; test: Antiviral activity against Marburgvirus Angola infected in African green monkey Vero cells; format: functional, organism-based; details: Orthomarburgvirus
[3] = Selectivity index, ratio of CC50 for cytotoxicity against African green monkey Vero cells infected with Marburgvirus Angola to EC50 for antiviral activity against Marburgvirus Angola infected in African green monkey Vero cells; format: toxicity, cell-based; details: read-out: Ratio CC50/EC50
[4] = test system: Zaire ebolavirus; test: Antiviral activity against Zaire ebolavirus infected in African green monkey Vero cells; format: functional, organism-based
[5] = Cytotoxicity against African green monkey Vero cells infected with Zaire ebolavirus; format: toxicity, cell-based; details: chlorocebus sabaeus
[6] = Cytotoxicity against African green monkey Vero cells infected with Marburgvirus Angola; format: toxicity, cell-based; details: chlorocebus sabaeus
[7] = Selectivity index, ratio of CC50 for cytotoxicity against African green monkey Vero 76 cells infected with Measles virus CC by visual analysis to EC50 for antiviral activity against Measles virus CC infected in African green monkey Vero 76 cells by visual analysis; format: toxicity, cell-based; details: read-out: Ratio CC50/EC50
[8] = test system: Measles morbillivirus; test: Antiviral activity against Measles virus CC infected in African green monkey Vero 76 cells by neutral red dye based analysis; format: functional, organism-based
[9] = Selectivity index, ratio of CC50 for cytotoxicity against African green monkey Vero 76 cells by neutral red dye based analysis to EC50 for antiviral activity against Measles virus CC infected in African green monkey Vero 76 cells by neutral red dye based analysis; format: toxicity, cell-based; details: read-out: Ratio CC50/EC50
[10] = Cytotoxicity against African green monkey Vero 76 cells infected with Measles virus CC by visual analysis; format: toxicity, cell-based; details: chlorocebus sabaeus
[11] = Cytotoxicity against African green monkey Vero 76 cells infected with Measles virus CC by neutral red dye based analysis; format: toxicity, cell-based; details: chlorocebus sabaeus
[12] = test system: Measles morbillivirus; test: Antiviral activity against Measles virus CC infected in African green monkey Vero 76 cells by visual analysis; format: functional, organism-based
[13] = test system: Rift Valley fever virus; test: Antiviral activity against Rift Valley fever virus; format: functional, organism-based
[14] = test system: Influenza B virus; test: Antiviral activity against influenza B virus; format: functional, organism-based
[15] = test system: Tacaribe virus; test: Antiviral activity against Tacaribe virus; format: functional, organism-based; details: Mammarenavirus tacaribeense
[16] = test system: Human betaherpesvirus 5; test: Antiviral activity against Human betaherpesvirus 5; format: functional, organism-based
[17] = test system: Influenza A virus; test: Antiviral activity against influenza A virus H5N1; format: functional, organism-based
[18] = test system: Measles morbillivirus; test: Antiviral activity against Measles virus; format: functional, organism-based
[19] = test system: Yellow fever virus; test: Antiviral activity against Yellow fever virus; format: functional, organism-based
[20] = test system: Hepatitis B virus; test: Antiviral activity against HBV; format: functional, organism-based
[21] = test system: Norovirus; test: Antiviral activity against Norovirus Genogroup 1 infected in human HG23 cells; format: functional, organism-based; details: Genogroup 1, HG23
[22] = Selectivity index, ratio of CC50 for cytotoxicity against human HG23 cells infected with Norovirus Genogroup 1 to EC50 for antiviral activity against Norovirus Genogroup 1 infected in human HG23 cells; format: toxicity, cell-based; details: read-out: Ratio CC50/EC50
[23] = Cytotoxicity against human HG23 cells infected with Norovirus Genogroup 1; format: toxicity, cell-based

Q: What does the source list for `NC(=O)c1nc(F)cnc1O` [FAVIPIRAVIR]?
A: selectivity ratio [1]: > 43; EC50 [2]: 167 µM; selectivity ratio [3]: > 6; EC50 [4]: 24 µM; CC50 [5]: > 1000 µM; CC50 [6]: > 1000 µM

Q: With `Nc1ccn([C@@H]2O[C@H](CO)[C@@H](O)[C@H]2F)c(=O)n1` as the compound, how does the selectivity ratio [7] read?
A: Its selectivity ratio is 121.

Q: And the EC50 [8]?
A: The EC50 was 3.59 µM.

Q: What about the selectivity ratio [9] of the same compound?
A: The selectivity ratio was 69.

Q: And the CC50 [10]?
A: Its CC50 is 277 µM.

Q: And the CC50 [11]?
A: Its CC50 is 249 µM.

Q: And the EC50 [12]?
A: Its EC50 is 2.28 µM.

Q: What does the source list for `Nc1nc(F)cc2c1ncn2[C@@H]1C=C(CO)[C@@H](O)[C@H]1O`?
A: Activity [13]: Active; Activity [14]: Active; Activity [15]: Active; Activity [16]: Active; Activity [17]: Active

Q: With `Nc1ncc(F)c2c1ncn2[C@@H]1C=C(CO)[C@@H](O)[C@H]1O` as the compound, how does the Activity [18] read?
A: The Activity was “Active”.

Q: What about the Activity [16] of the same compound?
A: Its Activity is “Active”.

Q: And the Activity [19]?
A: The Activity was “Active”.

Q: And the Activity [20]?
A: The Activity was “Active”.

Q: Which results are given for `C[C@@]1(O)[C@H](O)[C@@H](CO)O[C@H]1n1ccc(N)nc1=O`?
A: EC50 [21]: 1.23 µM; selectivity ratio [22]: > 22; CC50 [23]: > 25 µM
